Results: ChEMBL document CHEMBL1201862, “PubChem BioAssay data set” (2004)
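Growth conditions: 96-well plates. Treatment: test compound, 48 hours, 5 concentrations. Analysis: linear interpolation between bracketing concentrations; unreached endpoints set to highest concentration. Here, GI50 denotes the concentration required for 50% inhibition of growth.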 Activity calls are given as the source filed them. Cut-off read from the data, not from the text of the source: active = GI50 up to about 1.1 µM and inactive = higher.

How the values were obtained:
Assay in all cases: NCI-60 cell line screen, 48 h
HCT-116 = test system: HCT-116
M14 = test system: M14
NCI/ADR-RES = test system: NCI/ADR-RES
TK-10 = test system: TK-10
COLO 205 = test system: COLO 205
MDA-MB-435 = test system: MDA-MB-435
RPMI-8226 = test system: RPMI-8226
OVCAR-8 = test system: OVCAR-8
MDA-MB-231 = test system: MDA-MB-231
IGROV-1 = test system: IGROV-1
ACHN = test system: ACHN
BT-549 = test system: BT-549
A498 = test system: A498
PC-3 = test system: PC-3
K562 = test system: K562
786-0 = test system: 786-0
UACC-62 = test system: UACC-62
UACC-257 = test system: UACC-257
SR = test system: SR

SMILES	GI50 (HCT-116)	GI50 (M14)	GI50 (NCI/ADR-RES)	GI50 (TK-10)	GI50 (COLO 205)	GI50 (MDA-MB-435)	GI50 (RPMI-8226)	GI50 (OVCAR-8)	GI50 (MDA-MB-231)	GI50 (IGROV-1)	GI50 (ACHN)	GI50 (BT-549)	GI50 (A498)	GI50 (PC-3)	GI50 (K562)	GI50 (786-0)	GI50 (UACC-62)	GI50 (UACC-257)	GI50 (SR)
OC1c2c(ccc3c2CCC3)CC12Cc1ccccc1C2 (stereo not given)	16 µM (inactive)	15.3 µM (inactive)	14.3 µM (inactive)	14.8 µM (inactive)	16.3 µM (inactive)	15.7 µM (inactive)	14.7 µM (inactive)	17.7 µM (inactive)	15.2 µM (inactive)	17.7 µM (inactive)	16.8 µM (inactive)	16.9 µM (inactive)	16.2 µM (inactive)	15.3 µM (inactive)	17.1 µM (inactive)	17.1 µM (inactive)	15.4 µM (inactive)	14.1 µM (inactive)	10.9 µM (inactive)
COC1=C[C@]2(CCC(=O)O2)[C@@H]2Cc3ccccc3[C@H](O)[C@@H]2C1=O	30.5 µM (inactive)	> 100 µM (inactive)	97.9 µM (inactive)	> 100 µM (inactive)	> 100 µM (inactive)	16.9 µM (inactive)	18.1 µM (inactive)	38 µM (inactive)	34.6 µM (inactive)	82.6 µM (inactive)	49.2 µM (inactive)	49.3 µM (inactive)	> 100 µM (inactive)	31.2 µM (inactive)	38.4 µM (inactive)	70.5 µM (inactive)	24.8 µM (inactive)	22.1 µM (inactive)	19.5 µM (inactive)
COc1cc(CNc2c3ccccc3nc3ccccc23)cc(OC)c1OC	1.44 µM (inactive)	2.59 µM (inactive)	4.16 µM (inactive)	5.53 µM (inactive)	1.69 µM (inactive)	3.5 µM (inactive)	2.82 µM (inactive)	3.79 µM (inactive)	5.42 µM (inactive)	3.81 µM (inactive)	3.07 µM (inactive)	3.87 µM (inactive)	1.82 µM (inactive)	3.23 µM (inactive)	1.32 µM (inactive)	2.6 µM (inactive)	2.43 µM (inactive)	3.11 µM (inactive)	3.08 µM (inactive)
COC(=O)[C@H](CCSC)NC(=O)c1ccc(CNC(=O)/C(C)=C/c2ccccc2)cc1	50.9 µM (inactive)	30.8 µM (inactive)	25.9 µM (inactive)	> 100 µM (inactive)	> 100 µM (inactive)	74.5 µM (inactive)	> 100 µM (inactive)	23.3 µM (inactive)	46.8 µM (inactive)	50.1 µM (inactive)	44.3 µM (inactive)	24.7 µM (inactive)	> 100 µM (inactive)	47 µM (inactive)	> 100 µM (inactive)	20.8 µM (inactive)	32.3 µM (inactive)	20.7 µM (inactive)	92.7 µM (inactive)
CC(C)(C)c1ccc(-c2nc3ccc([N+](=O)[O-])cc3c(=O)o2)cc1	23.4 µM (inactive)	26.5 µM (inactive)	25.4 µM (inactive)	38.8 µM (inactive)	24.4 µM (inactive)	25.1 µM (inactive)	30.9 µM (inactive)	20.9 µM (inactive)	27.5 µM (inactive)	44.2 µM (inactive)	21.9 µM (inactive)	24.1 µM (inactive)	29.9 µM (inactive)	21.2 µM (inactive)	19.1 µM (inactive)	26.8 µM (inactive)	24.5 µM (inactive)	29.6 µM (inactive)	22.7 µM (inactive)
COC1=CC(=O)N(C(=O)C2CSC(C(CO)NC(=O)c3csc(/C=N/O)n3)=N2)C1 (stereo not given)	> 100 µM (inactive)	> 100 µM (inactive)	> 100 µM (inactive)	> 100 µM (inactive)	> 100 µM (inactive)	> 100 µM (inactive)	> 100 µM (inactive)	> 100 µM (inactive)	> 100 µM (inactive)	> 100 µM (inactive)	> 100 µM (inactive)	> 100 µM (inactive)	> 100 µM (inactive)	> 100 µM (inactive)	> 100 µM (inactive)	> 100 µM (inactive)	> 100 µM (inactive)	> 100 µM (inactive)	> 100 µM (inactive)
Cc1csc2nc(-c3cc([N+](=O)[O-])c(Cl)cc3Cl)c(/C=N/N=C(N)N)n12	16.7 µM (inactive)	17.1 µM (inactive)	15.3 µM (inactive)	16.8 µM (inactive)	17.9 µM (inactive)	17.1 µM (inactive)	16.7 µM (inactive)	19.2 µM (inactive)	14.8 µM (inactive)	16.4 µM (inactive)	16.6 µM (inactive)	14.6 µM (inactive)	19.6 µM (inactive)	16.4 µM (inactive)	6.53 µM (inactive)	19.5 µM (inactive)	14.2 µM (inactive)	17.8 µM (inactive)	0.0678 µM (active)
C=C(C)C(CC=C(C)C)Cc1c(O)cc(OC)c2c1OC(c1ccc(O)cc1O)C(O)C2=O (stereo not given)	17.3 µM (inactive)	22 µM (inactive)	22.9 µM (inactive)	21.8 µM (inactive)	16.3 µM (inactive)	16.9 µM (inactive)	> 100 µM (inactive)	17 µM (inactive)	18.6 µM (inactive)	14.6 µM (inactive)	20.4 µM (inactive)	14.9 µM (inactive)	16.5 µM (inactive)	13.5 µM (inactive)	> 100 µM (inactive)	16.6 µM (inactive)	16.2 µM (inactive)	17.7 µM (inactive)	> 100 µM (inactive)
O=S(=O)(/N=C(\NO)Nc1ccc(Cl)cc1)C1CC=C(c2ccon2)S1 (stereo not given)	15.6 µM (inactive)	29 µM (inactive)	22.1 µM (inactive)	14.4 µM (inactive)	15.7 µM (inactive)	8.91 µM (inactive)	6.07 µM (inactive)	8.77 µM (inactive)	18.4 µM (inactive)	11.6 µM (inactive)	13 µM (inactive)	12.3 µM (inactive)	7.24 µM (inactive)	14.8 µM (inactive)	7.1 µM (inactive)	2.88 µM (inactive)	24.5 µM (inactive)	12.5 µM (inactive)	2.3 µM (inactive)
CCOC(=O)c1nc2cc(C(F)(F)F)ccc2nc1Nc1ccc(C(=O)OC)s1	35.3 µM (inactive)	37.6 µM (inactive)	45.5 µM (inactive)	42.8 µM (inactive)	20.7 µM (inactive)	47.2 µM (inactive)	30.7 µM (inactive)	41.2 µM (inactive)	23.6 µM (inactive)	40.9 µM (inactive)	37.8 µM (inactive)	25.7 µM (inactive)	40.9 µM (inactive)	30.7 µM (inactive)	31.6 µM (inactive)	29.6 µM (inactive)	23.2 µM (inactive)	36.5 µM (inactive)	15.5 µM (inactive)
Cc1ccc2c(c1)C(=O)C1(C2)Cc2c(C)cccc2C1=O (stereo not given)	> 100 µM (inactive)	> 100 µM (inactive)	> 100 µM (inactive)	> 100 µM (inactive)	> 100 µM (inactive)	> 100 µM (inactive)	> 100 µM (inactive)	> 100 µM (inactive)	> 100 µM (inactive)	> 100 µM (inactive)	> 100 µM (inactive)	> 100 µM (inactive)	> 100 µM (inactive)	> 100 µM (inactive)	> 100 µM (inactive)	> 100 µM (inactive)	> 100 µM (inactive)	> 100 µM (inactive)	> 100 µM (inactive)
O=C(CCNC12CC3CC(CC(C3)C1)C2)c1ccccc1	15.2 µM (inactive)	17.8 µM (inactive)	21.2 µM (inactive)	18.2 µM (inactive)	15 µM (inactive)	26.5 µM (inactive)	8.13 µM (inactive)	21.6 µM (inactive)	13.4 µM (inactive)	21.6 µM (inactive)	25.9 µM (inactive)	28.7 µM (inactive)	17.4 µM (inactive)	19.6 µM (inactive)	14.3 µM (inactive)	16.3 µM (inactive)	19.6 µM (inactive)	15.3 µM (inactive)	13.4 µM (inactive)
C=Cc1nc2c(Cl)ncnc2n1Cc1ccccc1	2.06 µM (inactive)	3.88 µM (inactive)	3.7 µM (inactive)	2.11 µM (inactive)	1.53 µM (inactive)	2.65 µM (inactive)	0.839 µM (active)	3.2 µM (inactive)	5.74 µM (inactive)	3.08 µM (inactive)	1.86 µM (inactive)	4.71 µM (inactive)	7.13 µM (inactive)	3.52 µM (inactive)	3.05 µM (inactive)	1.6 µM (inactive)	6.68 µM (inactive)	2.59 µM (inactive)	2.56 µM (inactive)
C(=C\c1ccccc1)/C=N/c1nc2cc3sc(/N=C/C=C/c4ccccc4)nc3cc2s1	28.5 µM (inactive)	> 100 µM (inactive)	> 100 µM (inactive)	> 88.9 µM (inactive)	1.06 µM (active)	> 100 µM (inactive)	> 87.7 µM (inactive)	> 92.3 µM (inactive)	> 100 µM (inactive)	> 63.2 µM (inactive)	> 55.8 µM (inactive)	> 96.2 µM (inactive)	> 42.5 µM (inactive)	> 79.8 µM (inactive)	43.3 µM (inactive)	> 100 µM (inactive)	99.8 µM (inactive)	> 100 µM (inactive)	2.95 µM (inactive)
NC(=O)C1=CC2C3C=CC2(O)C(=O)OC3O1 (stereo not given)	2.62 µM (inactive)	2.97 µM (inactive)	2.46 µM (inactive)	4.07 µM (inactive)	3.71 µM (inactive)	3.27 µM (inactive)	1.57 µM (inactive)	2.46 µM (inactive)	7.64 µM (inactive)	2.92 µM (inactive)	3.44 µM (inactive)	4.06 µM (inactive)	32.7 µM (inactive)	3.57 µM (inactive)	7.29 µM (inactive)	3.63 µM (inactive)	2.71 µM (inactive)	2.58 µM (inactive)	1.68 µM (inactive)
